Measurements published in patent US10851083B2, “Benzoimidazoles as prolyl hydroxylase inhibitors” (Janssen Pharmaceutica NV, priority 2008, dated 2020).

How the values were obtained:
human PHD2181-417 = human PHD2181-417 (Homo sapiens (Human), UniProt Q9GZT9); experiment: PHD2 enzyme activity assay ([14C]-succinic acid production); type: biochemical; details: PHD2181-417 polypeptide, HIF-1α peptide 10 μM, [5-14C]-2-oxoglutaric acid, 30 min pre-incubation, tested 10 μM to 3 nM;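 also: reaction ran 10 min with compound in Tris pH 7.5 buffer with catalase, DTT and ascorbate, labelled succinate freed of leftover 2-oxoglutarate by DNP precipitation, then beta counted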
Hep-3B cells = experiment: Cellular assay: EPO secretion in Hep-3B cells; type: cell-based, human; parameters: EPO secretion, % of control compound: dose or concentration left out as unconfirmed; details: 24 h, EPO secretion as percentage of control compound 7-[(4-Chloro-phenyl)-(5-methyl-isoxazol-3-ylamino)-methyl]-quinolin-8-ol; for EPO secretion, % of control compound: Homo sapiens, Hep3B, read-out: Cellular % EPO Stimulation

Chain of human PHD2181-417 (Q9GZT9 181-417): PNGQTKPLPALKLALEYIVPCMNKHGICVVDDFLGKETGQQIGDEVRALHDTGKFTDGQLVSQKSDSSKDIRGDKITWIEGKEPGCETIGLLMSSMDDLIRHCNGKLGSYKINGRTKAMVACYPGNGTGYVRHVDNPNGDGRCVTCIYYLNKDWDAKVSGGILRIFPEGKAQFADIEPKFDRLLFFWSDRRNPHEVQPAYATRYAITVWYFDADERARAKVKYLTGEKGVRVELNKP

Row | Enzyme pIC50 (human PHD2181-417) | IC50 (human PHD2181-417; read-out: Enzyme pIC50 (converted)) [µM] | SMILES | EPO secretion, % of control compound (Hep-3B cells) [%] | Cellular % EPO Stimulation (Hep-3B cells; compound at 100 μM (10 μM or 100 μM)) [%]
1 | 6.1 |  | Cc1cc(Br)cc2nc(-n3cc(C(=O)O)cn3)[nH]c12 [Example 49, 1-(5-Bromo-7-methyl-1H-benzoimidazol-2-yl)-1H-pyrazole-4-carboxylic Acid] | 24 | 
2 | 7.1 |  | O=C(O)c1cnn(-c2nc3cc(Oc4ccc(F)c(Cl)c4)c(Cl)cc3[nH]2)c1 [Example 148, 1-[6-Chloro-5-(3-chloro-4-fluoro-phenoxy)-1H-benzoimidazol-2-yl]-1H-pyrazole-4-carboxylic Acid] | 38.1 | 
3 | 6.7 |  | O=C(O)c1cnn(-c2nc3cc(N4CCCC4)c(Cl)cc3[nH]2)c1 [Example 43, 1-(6-Chloro-5-pyrrolidin-1-yl-1H-benzoimidazol-2-yl)-1H-pyrazole-4-carboxylic Acid] | 178 | 
4 | 6.8 |  | O=C(O)c1cnn(-c2nc3cc(F)c(N4CCCCC4)cc3[nH]2)c1 [Example 118, 1-(5-Fluoro-6-piperidin-1-yl-1H-benzoimidazol-2-yl)-1H-pyrazole-4-carboxylic Acid] | 152 | 
5 | 7.07 |  | O=C(O)c1cnn(-c2nc3cc(Sc4ccc(Cl)cc4)c(Cl)cc3[nH]2)c1 [Example 61, 1-[6-Chloro-5-(4-chloro-phenylsulfanyl)-1H-benzoimidazol-2-yl]-1H-pyrazole-4-carboxylic Acid] | 101 | 
6 | 7.2 |  | Cc1ccc2c(n1)c(Br)cc1nc(-n3cc(C(=O)O)cn3)[nH]c12 [Example 58, 1-(5-Bromo-7-methyl-1H-imidazo[4,5-f]quinolin-2-yl)-1H-pyrazole-4-carboxylic Acid] | 50 | 
7 | 7.1 |  | CSc1cc2[nH]c(-n3cc(C(=O)O)cn3)nc2cc1C(F)(F)F [Example 71, 1-(6-Methylsulfanyl-5-trifluoromethyl-1H-benzoimidazol-2-yl)-1H-pyrazole-4-carboxylic Acid] | 114 | 
8 | 6.5 |  | COc1cc2[nH]c(-n3cc(C(=O)O)cn3)nc2cc1Cl [Example 46, 1-(6-Chloro-5-methoxy-1H-benzoimidazol-2-yl)-1H-pyrazole-4-carboxylic Acid] | 76 | 
9 | 6 |  | O=C(O)c1cnn(-c2nc3ccc4scnc4c3[nH]2)c1 [Example 125, 1-(8H-Imidazo[4′,5′:3,4]benzo[2,1-d]thiazol-7-yl)-1H-pyrazole-4-carboxylic Acid] | 46.8 | 
10 |  | > 100 | O=C(O)c1cn(-c2nc3cc(Cl)c(Cl)cc3[nH]2)nc1C(F)(F)F [Example 20, 1-(5,6-dichloro-1H-benzoimidazol-2-yl)-3-trifluoromethyl-1H-pyrazole-4-carboxylic Acid] |  | 18.81
11 | 6.6 |  | COc1ccc(Sc2cc3nc(-n4cc(C(=O)O)cn4)[nH]c3cc2Cl)cc1 [Example 65, 1-[6-Chloro-5-(4-methoxy-phenylsulfanyl)-1H-benzoimidazol-2-yl]-1H-pyrazole-4-carboxylic Acid] | 56.3 | 
12 | 7.3 |  | COc1ccc(S(=O)(=O)c2cc3nc(-n4cc(C(=O)O)cn4)[nH]c3cc2Cl)cc1 [Example 84, 1-[6-Chloro-5-(4-methoxy-benzenesulfonyl)-1H-benzoimidazol-2-yl]-1H-pyrazole-4-carboxylic Acid] | 42.7 | 
13 | 7.5 |  | O=C(O)c1cnn(-c2nc3cc(S(=O)(=O)Cc4ccccc4)c(Cl)cc3[nH]2)c1 [Example 89, 1-(6-Chloro-5-phenylmethanesulfonyl-1H-benzoimidazol-2-yl)-1H-pyrazole-4-carboxylic Acid] | 28.4 | 
14 | 6.6 |  | O=C(O)c1cnn(-c2nc3c(F)c(F)ccc3[nH]2)c1 [Example 111, 1-(4,5-Difluoro-1H-benzoimidazol-2-yl)-1H-pyrazole-4-carboxylic Acid] | 32.6 | 
15 | 7.6 |  | CCS(=O)(=O)c1cc2nc(-n3cc(C(=O)O)cn3)[nH]c2cc1OC(F)(F)F [Example 155, 1-(5-Ethylsulfonyl-6-trifluoromethoxy-1H-benzoimidazol-2-yl)-1H-pyrazole-4-carboxylic Acid] | 47.2 | 
16 | 7.6 |  | CCS(=O)(=O)c1cc2nc(-n3cc(C(=O)O)cn3)[nH]c2cc1C(F)(F)F [Example 154, 1-(5-Ethylsulfonyl-6-trifluoromethyl-1H-benzoimidazol-2-yl)-1H-pyrazole-4-carboxylic Acid] | 53.8 | 
17 | 7.4 |  | CCS(=O)(=O)c1cc2nc(-n3cc(C(=O)O)cn3)[nH]c2cc1F [Example 156, 1-(5-Ethylsulfonyl-6-fluoro-1H-benzoimidazol-2-yl)-1H-pyrazole-4-carboxylic Acid] | 51.9 | 
18 | 6.2 |  | CCNc1cc2nc(-n3cc(C(=O)O)cn3)[nH]c2cc1Cl [Example 130, 1-(6-Chloro-5-ethylamino-1H-benzoimidazol-2-yl)-1H-pyrazole-4-carboxylic Acid] | 48 | 
19 | 6.2 |  | O=C(O)c1cnn(-c2nc3c(F)cccc3[nH]2)c1 [Example 110, 1-(4-Fluoro-1H-benzoimidazol-2-yl)-1H-pyrazole-4-carboxylic Acid] | 45.9 | 
20 | 7.5 |  | O=C(O)c1cnn(-c2nc3cc([N+](=O)[O-])c(Cl)cc3[nH]2)c1 [Example 40, 1-(6-Chloro-5-nitro-1H-benzoimidazol-2-yl)-1H-pyrazole-4-carboxylic Acid] | 93.4 | 
21 | 6.2 |  | O=C(CN1CCCCC1)Nc1cc2nc(-n3cc(C(=O)O)cn3)[nH]c2cc1Cl [Example 143, 1-[6-Chloro-5-(2-piperidin-1-yl-acetylamino)-1H-benzoimidazol-2-yl]-1H-pyrazole-4-carboxylic Acid] | 20 | 
22 | 7.7 |  | O=C(O)c1cnn(-c2nc3cc(S(=O)(=O)CC4CCCCC4)c(Cl)cc3[nH]2)c1 [Example 175, 1-(6-Chloro-5-cyclohexylmethanesulfonyl-1H-benzoimidazol-2-yl)-1H-pyrazole-4-carboxylic Acid] | 48.7 | 
23 | 7.3 |  | O=C(O)c1cnn(-c2nc3cc(SCc4c(Cl)cccc4Cl)c(Cl)cc3[nH]2)c1 [Example 168, 1-[6-Chloro-5-(2,6-dichloro-benzylsulfanyl)-1H-benzoimidazol-2-yl]-1H-pyrazole-4-carboxylic Acid] | 50.1 | 
24 | 7.1 |  | O=C(O)c1cnn(-c2nc3cc(C(=O)NCc4ccccc4)ccc3[nH]2)c1 [Example 121, 1-(5-Benzylcarbamoyl-1H-benzoimidazol-2-yl)-1H-pyrazole-4-carboxylic Acid] | 18.5 | 
25 | 6.2 |  | O=C(O)c1cnn(-c2nc3cc(NCc4ccccc4)c(Cl)cc3[nH]2)c1 [Example 132, 1-(5-Benzylamino-6-chloro-1H-benzoimidazol-2-yl)-1H-pyrazole-4-carboxylic Acid] | 52.6 | 
